The record followed here is patent EP0426029A1, “Injectable formulation for lipophilic drugs” (ABBOTT LABORATORIES, priority 1989, dated 1991).

The subject of the series is mice. Description: Mouse scratch test (irritation/pain at the injection site). It counts as in vivo. As to the method:
A scratch test was conducted in mice to measure the response to the sensation of irritation, i.e., the pain associated with an injection. Formulations were administered subcutaneously at a dose of 5 ml/kg to groups of mice (10/group) weighing 20 to 40 g each. The number of times that each mouse scratched the injection site was then counted for exactly five minutes.

On to `CC[C@H]1OC(=O)[C@H](C)[C@@H](O[C@H]2C[C@@](C)(OC)[C@@H](O)[C@H](C)O2)[C@H](C)[C@@H](O[C@@H]2O[C@H](C)C[C@H](N(C)C)[C@H]2O)[C@](C)(OC)C[C@@H](C)C(=O)[C@H](C)[C@@H](O)[C@]1(C)O` [Clarithromycin Lactobionate, Clarithromycin lactobionate], for which the “No. of Scratches” value (Table I, subcutaneous, 5 ml/kg, mice (10/group), scratches of injection site counted for five minutes, 5 mg/ml in clarithromycin) is listed as 22.0 ± 7.2. Also, the “NO. OF SCRATCHES” value (Table II, mouse scratch test, all solutions 5 mg/ml clarithromycin, pH as shown in formulation) was 15.1 ± 4.4.
